Like-named read-outs stand apart in the source and are kept apart here.
What was measured:
[1] = system: Histamine-induced anaphylactoid reactions; test: Inhibition of anaphylactoid cutaneous reaction induced by histamine; format: in vivo, rat (Sprague-Dawley); conditions: Rattus norvegicus, 1 h; rats, 2 × 10^-5 mol/kg p.o., one hour before challenge; histamine intradermal
Method: (§1) 1. Determination of the inhibition of passive cutaneous anaphylaxis (P.C.A.) and of the anaphylactoid cutaneous reaction induced by histamine.
(§2) The determination of the inhibition of passive cutaneous anaphylaxis and the anaphylactoid cutaneous reaction induced by histamine was carried out as follows:
To determine the histamine-induced anaphylactoid skin reaction, the animals were injected intradermally in the flank opposite to the antiserum administration with 50 μl of a physiological saline solution containing 0.8 mg/ml of histamine directly before the i.v. injection of the solution containing the ovalbumin and the blue dye.
(§3) On the test days, the test substances were dissolved in distilled water which contained 1% by volume of dimethylformamide and 1% by volume of Tween®20 (polyoxyethylene(20) sorbitan monolaurate). One hour before the challenging ovalbumin administration, each animal received 2×10^-5 mol/kg of test substance administered orally in 0.5 ml of solution. A control group received only the solvent for comparison.
(§4) The oedematous anaphylactic (P.C.A.) and anaphylactoid (histamine-induced) reactions caused by the challenging i.v. ovalbumin injection, which are manifested by oedema formation, swelling and exudation of blue dye, were evaluated 30 minutes after challenge by the i.v. ovalbumin injection. This was done by visual determination of the extent to which the blue dye emerges at the sites of oedema formation. The percentage inhibition of anaphylactic and anaphylactoid reactions caused by the test substances was determined in comparison with the reactions of the control animals not treated with test substance with the aid of comparison scales.
(§5) The results obtained by the above test methods using compounds of the formula I are shown in the following Table A. The example numbers given for the compounds of formula I relate to the following preparation examples.

[2] = system: Passive cutaneous anaphylaxis (P.C.A.); test: Inhibition of passive cutaneous anaphylaxis (P.C.A.); format: in vivo, rat (Sprague-Dawley); conditions: Rattus norvegicus, 1 h; rats, 2 × 10^-5 mol/kg p.o., one hour before ovalbumin challenge
Method: as §1
The P.C.A. reaction was carried out according to the methods described by Goose et al. (J.N. Immunology 16 (1969), 749) and by Martin et al (Arch. Pharmacol. 316 (1981), 186}.
The IgE-rich ovalbumin antiserum used in the test was obtained from immunized Brown-Norway rats. For immunization, the rats were given an i.p. injection of a mixture of 100 μg of ovalbumin with a Bordetella pertussis suspension (Vaxicoq®, Manufacturer: Institut Merieux, containing 5×10^9 organisms and 1.25 mg of Al(OH)3). After 20 days, the animals received a further i.p. injection of a solution of 10 μg of ovaIbumin in 0.5 ml of physiological saline solution for reimmunisation. After a further four days, the animals were bled, and the blood was centrifuged The antiserum obtained in this way was stored at -20° C. until use.
as §2
Sprague-Dawley rats having a body weight of 150-180 g were injected intradermally in one flank with 50 μl of a 1:75 dilution of the IgE-rich ovalbumin antiserum in physiological sodium chloride solution for passive sensitization to ovalbumin.
24 hours after sensitization a solution of 8.25 mg/kg of ovalbumin and 26.4 mg/kg of a blue dye (Evans' Blue) was administered i.v. to the rats according to Martin et al. to induce passive cutaneous anaphylaxis. The ovalbumin challenge caused a local anaphylactic reaction at the site at which the antiserum had been injected.
as §3, §4, §5

[3] = biological target: T1, histamine (H1) receptor (Cavia porcellus, UniProt P31389); test: Antihistamine (H1) effect: inhibition of histamine-induced contractions of isolated guinea-pig ileum in vitro; format: cell-based, guinea-pig (Dunkin Hartley); conditions: histamine 5 × 10^-6 mol/l, test substance 10^-6 mol/l
T1 construct: isolated smooth muscle of the guinea-pig ileum; from tissue; host or cells: isolated ileum segments of Dunkin Hartley guinea-pigs
Method: 3. Investigation of the antihistamine (H1) effect based on histamine (H1) receptor antagonism in vitro.
To investigate the histamine (H1) receptor antagonism of the substances, the inhibitory effect thereof on histamine-induced contractions of the smooth musculature of isolated organ was determined in vitro. Isolated strips of organ from the ileum were used. In an organ bath of physiological saline solution, they react to addition of histamine by contracting. Addition of the compounds of the invention decreases this histamine-induced contraction of the smooth musculature of the ileum strips. The extent of decrease of the contraction is an indication of the antihistamine (H1) activity of the compounds. The investigation is carried out analogously to the method originally described by Magnus (Pflugers Arch. 102, 123 (1904)).
Experimental description of the determination of the inhibitory effect on the contraction induced by a 5×10^-6 molar histamine concentration on isolated smooth muscle of the guinea-pig ileum.
For the test, 1.5 cm long segments of the ileum from Dunkin Hartley guinea-pigs having a body weight of 300-500 g were employed. Each strip was placed in an organ bath of 10 ml of Krebs-Henseleit physiological saline solution and attached to a customary apparatus for isotonically measuring changes in length of the ileum strip (automated Celaster measuring apparatus) so that the tissue is under a tension of 1 g. The bath was kept at a pH of 7.4 and aerated with a mixture of 5% CO2 and 95% O2. After an equilibration phase, an isotonic contraction of the tissue was produced by adding histamine in a final concentration of 5×10^-6 mol/l and was washed out again after a contact time of 30 seconds. Only those tissues in which three reproducible contractions were obtained at 10 minute intervals were used in the subsequent test. The test substances were then added in a final concentration of 10^-6 mol/l, and after a contact time of 30 seconds histamine was again added up to a concentration of 5×10^-6 mol/l. The contractions which occurred were measured over the course of 30 seconds. The tissue was then washed several times over a period of 10 minutes. A contraction challenge was then induced again by addition of histamine. The contractions which occurred were again measured over 30 seconds. The difference between the amplitude of the contraction obtained by histamine addition alone and the amplitude of the contraction obtained in the presence of the test substance was determined and calculated as % inhibition.
The inhibitory effects on the contractions induced by histamine 30 seconds after administration of the test substance and on the contractions induced by addition of histamine 10 minutes afterward are given in the table.

[4] = system: P.A.F.-induced aggregation of platelets from rabbit blood; test: Anti-P.A.F. effect in vitro: inhibition of P.A.F.-induced platelet aggregation; format: cell-based, rabbit (New Zealand hybrids); conditions: test substance concentration 10^-5 mol/l; for inhibition at 10 µM: Oryctolagus cuniculus, Platelet
Source text: 4. Determination of anti-P.A.F. effect in vitro.
Platelet-activating factor (P.A.F.) is a phospholipid mediator which has several effects. The activation of platelet aggregation leads to the induction of protracted broncho contractions and hyperreactivity of the airways.
The effects of the test substances on platelet aggregation induced by adding P.A.F. to a platelet suspension obtained from rabbit blood was investigated by the method described by Mikashima et al. (Jap. J. Pharmacol. 44 (1987) 387-391).
A suspension of platelets originating from rabbit blood was used which contained 4×10^9 platelets/ml in a modified Tyrode buffer solution adjusted to pH 7.4. Tyrode solution is an aqueous solution containing 136.9 mmol of NaCl, 2.68 mmol of KCl, 2.31 mmol of CaCl2, 1.0 mmol of MgCl2, 11.9 mmol of NaHCO3, 1.45 mmol of NaH2 PO4 and 5.55 mmol of glucose per liter. This solution was modified by adding 1.3 mM/l of CaCl2 and 2.5 g/l of gelatin. The platelets were obtained from 10 ml blood samples from each of three rabbits (New Zealand hybrids, body weight 3-4 kg). For this, the blood samples were treated with ethylenediaminetetraacetic acid and washed by the method of Artley et al. (Brit. J. Hamatol. 19 (1970), 7-17). A platelet-rich plasma was then initially separated by centrifugation (20 minutes at 400×g). The platelets were separated from the plasma by centrifuging again for 15 minutes at 1400×g. After centrifuging, the platelets remaining as a sediment were resuspended in a calcium-free Tyrode buffer solution. 0.4 mmol of lysine acetylsalicylate were then added and after 15 minutes the blood platelets were sedimented again. The sediment was resuspended in the abovementioned modified Tyrode buffer solution, and the number of platelets in the resulting suspension was adjusted to the desired content.
A 40×10^-9 molar P.A.F. solution was used as the reagent. This solution was prepared from a 1.8×10^-3 molar stock solution in chloroform. For this, a 10μl sample of the stock solution was evaporated to dryness and redissolved in 180 μl of the modified Tyrode solution, to which 0.25% of dilapidated bovine serum albumin had been added. 10^-5 molar working solutions were then prepared from this and stored frozen. Samples of these solutions were appropriately diluted for the tests.
To carry out the tests, 50 μl of the platelet solution and 10 μl of a 40×10^-5 molar solution of the compound to be investigated were added to 330 μl of the modified Tyrode buffer solution with stirring (1000 rpm) in an aggregation tube provided with a small magnetic stirrer. This corresponds to a final test substance concentration of 10^-5 mol/l. After a preincubation time of 90seconds, 10 μl of the P.A.F. preparation were added. The aggregation occurring in the aggregation tubes was measured for 4-5 minutes using a computerized aggregometer.
The aggregation occurring in the test tubes containing only platelet suspension was rated as 0%. The aggregation occurring in test tubes containing platelet suspension and P.A.F. preparation was rated as 100%. The aggregation which still occurred in the presence of the test substances (i.e. during inhibition of the P.A.F.-induced platelet aggregation increase) was measured, and the resulting aggregation inhibition is calculated from this in %.

[5] = after 30 sec., read-out: in vitro (H1) receptor antagonism % inhibitory effect on histamine-induced contractions of the Ileum, after 30 sec.
[6] = after 10 min. (after washing), read-out: in vitro (H1) receptor antagonism % inhibitory effect on histamine-induced contractions of the Ileum, after 10 min.

T1 sequence (P31389 whole entry): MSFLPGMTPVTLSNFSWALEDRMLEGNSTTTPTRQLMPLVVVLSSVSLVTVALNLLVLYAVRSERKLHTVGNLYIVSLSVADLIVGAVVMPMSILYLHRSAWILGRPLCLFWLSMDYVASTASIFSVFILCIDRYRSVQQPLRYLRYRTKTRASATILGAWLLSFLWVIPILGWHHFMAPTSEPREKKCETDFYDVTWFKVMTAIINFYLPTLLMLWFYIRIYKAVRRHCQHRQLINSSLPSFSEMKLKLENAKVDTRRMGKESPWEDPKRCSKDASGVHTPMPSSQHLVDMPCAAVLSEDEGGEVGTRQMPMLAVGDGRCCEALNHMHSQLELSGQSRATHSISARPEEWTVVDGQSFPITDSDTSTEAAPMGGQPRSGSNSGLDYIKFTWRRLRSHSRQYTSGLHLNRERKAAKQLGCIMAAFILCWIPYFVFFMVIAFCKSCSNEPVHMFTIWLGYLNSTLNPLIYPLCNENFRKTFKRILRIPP

Row | Structure (SMILES) | inhibition in vivo at 20 µmol/kg [1] [%] | inhibition in vivo at 20 µmol/kg [2] [%] | inhibition at 1 µM [3, 5] [%] | inhibition at 1 µM [3, 6] [%] | inhibition at 10 µM [4] [%] | further results
1 | COc1cccc(N2CCN(CCc3c(C)n4c5c(cccc35)CCC4)CC2)c1 [Example 48] | 35 | 25 | 35 | 48 | – | –
2 | Cc1ccnc(N2CCN(CCc3c(C)n4c5c(cccc35)CCCC4)CC2)c1 [Example 31, 4,5,6,7-tetrahydro-2-methyl-1-{2-[4-(4-methylpyridin-2-yl)piperazin-1-yl]ethyl}-pyrrolo[3,2,1-jk]benzazepine] | – | – | 31 | 89 | 95 | –
3 | Cc1ccnc(N2CCN(CCCc3c(C)n4c5c(cccc35)CCC4)CC2)c1 [Example 17, 5,6-dihydro-2-methyl-1-{3-[4-(4-methylpyridin-2-yl)piperazin-1-yl]-propyl}-4H-pyrrolo[3,2,1-ij]quinoline] | 25 | 45 | – | – | – | –
4 | Cc1ccc(-c2c(CCN3CCN(c4cc(C)ccn4)CC3)c3cccc4c3n2CCC4)cc1 [Example 86] | – | – | – | – | 100 | –
5 | COc1ccc(-c2c(CCN3CCN(c4cc(C)ccn4)CC3)c3cccc4c3n2CCC4)cc1 [Example 96] | – | – | – | – | – | % inhibition of the P.A.F.-induced aggregation of platelets from rabbit blood [4]: 98%
6 | Cc1ccnc(N2CCN(CCc3c(C)n4c5c(cccc35)S(=O)(=O)CC4)CC2)c1 [Example 28b, 2,3-dihydro-5-methyl-6-{2-[4-(4-methylpyridin-2-yl)-piperazin-1yl]ethyl}-pyrrolo[1,2,3-de]-1,4-benzothiazine-1,1-dioxide] | 85 | 100 | 6 | 14 | – | –
7 | Cc1ccnc(N2CCN(CCc3c(C)n4c5c(cccc35)[S+]([O-])CC4)CC2)c1 (centres unmarked) [Example 28a, 2,3-Dihydro-5-methyl-6-{2-[4-(4-methylpyridin-2-yl)-piperazin-1-yl]ethyl}-pyrrolo[1,2,3-de]-1,4-benzothiazine-1-oxide] | 90 | 100 | 25 | 24 | – | –
8 | Cc1ccnc(N2CCN(CCc3c(C)n4c5c(cccc35)CCC4CO)CC2)c1 (centres unmarked) [Example 18, 5,6-Dihydro-4-hydroxymethyl-2-methyl-1-{2-[4-(4-methylpyridin-2-yl)piperazin-1-yl]ethyl}-4H-pyrrolo[3,2,1-ij]-quinoline] | 80 | 90 | 29 | 72 | – | –
9 | Cc1ccc(N2CCN(CCc3c(C)n4c5c(cc(C(=O)C(C)C)cc35)CCC4)CC2)nc1 [Example 95] | – | – | 10 | 71 | – | –
10 | CNc1cc2c3c(c1)c(CCN1CCN(c4cc(C)ccn4)CC1)c(C)n3CCC2 [Example 29, 5,6-Dihydro-2-methyl-8-methylamino-1-{2-[4-(4-methylpyridin-2-yl)piperazin-1-yl]ethyl}-4H-pyrrolo[3,2,1-ij]quinoline] | – | – | – | – | – | in vitro (H1) receptor antagonism % inhibitory effect on histamine-induced contractions of the Ileum, after 30 sec. ([3]; after 30 sec.): 7%; in vitro (H1) receptor antagonism % inhibitory effect on histamine-induced contractions of the Ileum, after 10 min. ([3]; after 10 min. (after washing)): 30%
11 | Cc1ccnc(N2CCN(CCc3c(-c4ccc(O)cc4)n4c5c(cccc35)CCC4)CC2)c1 [Example 97] | – | – | – | – | – | % inhibition of the P.A.F.-induced aggregation of platelets from rabbit blood [4]: 99%
12 | Cc1ccnc(N2CCN(CCc3c(Cc4ccccc4)n4c5c(cccc35)CCC4)CC2)c1 [Example 32, 2-Benzyl-5,6-dihydro-1-{2-[4-(4-methylpyridin-2-yl)-piperazin-1-yl]ethyl}-4H-pyrrolo[3,2,1-ij]quinoline] | – | – | – | – | 100 | –
13 | CSc1cc2c3c(c1)c(CCN1CCN(c4cc(C)ccn4)CC1)c(C)n3CCS2 [Example 78] | – | – | 12 | 92 | 98 | –

— patent US5324725A, “7-fused 2-(piperazinoalkyl) indole derivatives, intermediates and compositions thereof” (Kali-Chemie Pharma GmbH, priority 1991, dated 1994)
